Experiments:
[1] = molecular target: T1, recombinant human CB1 receptor (Homo sapiens, UniProt P21554); assay: Cannabinoid Receptor-1 (CB1) Functional Activity Assay (intracellular cAMP in CB1-CHO cells); format: cell-based; settings: for EC50: CB1-CHO cells, forskolin-stimulated cAMP, read-out: EC50 in the CB1 functional activity assay; for functional mode at CB1 receptor: CB1 functional activity assay, cAMP
T1 construct: expressed in transfected cells
Description: The functional activation of CB1 receptor is based on recombinant human CB1 receptor expressed in CHO cells (Felder et al, Mol. Pharmacol. 48: 443-450, 1995). To determine the agonist activity or inverse agonist activity of any test compound, 50 ul of CB1-CHO cell suspension are mixed with test compound and 70 ul assay buffer containing 0.34 mM 3-isobutyl-1-methylxanthine and 5.1 uM of forskolin in 96-well plates. The assay buffer is comprised of Earle's Balanced Salt Solution supplemented with 5 mM MgCl2 1 mM glutamine, 10 mM HEPES, and 1 mg/mL bovine serum albumin. The mixture is incubated at room temperature for 30 minutes, and terminated by adding 30 ul/well of 0.5M HCl. The total intracellular cAMP level is quantitated using the New England Nuclear Flashplate and cAMP radioimmunoassay kit.
To determine the antagonist activity of test compound, the reaction mixture also contains 0.5 nM of the agonist CP55940 (or 50 nM of methanandamide), and the reversal of the CP55940 (or methanandamide) effect is quantitated with increasing concentration of the test compound. Intracellular cAMP is determined as described above. An IC50 value for the test compound is calculated from the titration curve.

[2] = molecular target: T1, recombinant human CB1 receptor; assay: Cannabinoid Receptor-1 (CB1) Binding Assay ([3H]CP-55940 displacement); settings: recombinant human CB1 receptor expressed in CHO cells, 0.6 nM [3H]CP-55940; read-out: CB1 binding IC50
Description: Binding affinity determination is based on recombinant human CB1 receptor expressed in Chinese Hamster Ovary (CHO) cells (Felder et al, Mol. Pharmacol. 48: 443-450, 1995). Total assay volume is 250 μl (240 μl CB1 receptor membrane solution plus 5 μl test compound solution plus 5 μl [3H]CP-55940 solution). Final concentration of [3H]CP-55940 is 0.6 nM. Binding buffer contains 50 mM Tris-HCl, pH 7.4, 2.5 mM EDTA, 5 mM MgCl2, 0.5 mg/mL fatty acid free bovine serum albumin and protease inhibitors (Cat#P8340, from Sigma). To initiate the binding reaction, 5 μl of radioligand solution is added, the mixture is incubated with gentle shaking on a shaker for 1.5 h at 30° C. The binding is terminated by using 96-well harvester and filtering through GF/C filter presoaked in 0.05% polyethylenimine. The bound radiolabel is quantitated using scintillation counter. Apparent binding affinities for various compounds are calculated from IC50 values (DeBlasi et al., Trends Pharmacol Sci 10: 227-229, 1989).

[3] = tested on: human GABA α1β3β2 receptors; assay: GABAa, 3H-muscimol binding assay; settings: for % GABA Example: activity at 10 μM as percentage of activity of control compound P18 at 10 μM (increase of 3H-muscimol binding); for % GABA Parent: parent compound without R^4 heteroaryl, activity at 10 μM as percentage of activity of control compound P18 at 10 μM
Description: Membranes from recombinant Ltk cells expressing human GABA α1β3β2 receptors were suspended in an ice-cold solution of 100 mM KCl, 10 mM KH2PO4, adjusted to pH=7.4 with 1 M KOH. Tritiated muscimol (PerkinElmer, Wellesley, Mass.) at a concentration of 2 nM, and serial five-fold dilutions of test compounds at 10 μM, 2.0 μM, 400 nM, 80 nM, 16 nM, 3.2 nM, 0.64 nM and 0.13 nM were mixed in 96-well plates containing 200 μL of membrane suspension. Cold muscimol and compound P18 were used as negative and positive controls respectively. The assay mixture was incubated at 4° C. for 2 hours, then harvested on GF/C filter plates and washed with ice-cold 50 mM Tris-Ci buffer. The filter plates were dried and counted in a Wallac MicroBeta® Trilux detector (Model 1450-030; PerkinElmer, Wellesley, Mass.), and the data were downloaded and analyzed using Prism 3.0. The activity of compound P18 at 10 μM was used as reference for the test compounds, and it was expressed as increasing ^3H-muscimol binding by 100%, whereas cold muscimol at 2 μM antagonized ^3H-muscimol binding by 100%. The tested compound's activity at 10 μM was expressed as a percentage of compound P18's activity at 10 μM.
As a reference, the parent compound (the compound not substituted with a R^4 heteroaryl, such as pyrazole or 1,2,4-oxadiazole, as indicated below) is also shown with its Gamma Amino Butyric Acid (GABA) Receptor activity. […] As a result, the compounds of the present invention in which R^4 is a heteroaryl, such as pyrazole or 1,2,4-oxadiazole, have the unexpected benefits of minimizing off target activity at the GABA receptor.
Note: % GABA is defined as the GABA activity of the indicated compound expressed as a percentage of the activity of control compound P18. NA=data not available.

T1 sequence (P21554 whole entry): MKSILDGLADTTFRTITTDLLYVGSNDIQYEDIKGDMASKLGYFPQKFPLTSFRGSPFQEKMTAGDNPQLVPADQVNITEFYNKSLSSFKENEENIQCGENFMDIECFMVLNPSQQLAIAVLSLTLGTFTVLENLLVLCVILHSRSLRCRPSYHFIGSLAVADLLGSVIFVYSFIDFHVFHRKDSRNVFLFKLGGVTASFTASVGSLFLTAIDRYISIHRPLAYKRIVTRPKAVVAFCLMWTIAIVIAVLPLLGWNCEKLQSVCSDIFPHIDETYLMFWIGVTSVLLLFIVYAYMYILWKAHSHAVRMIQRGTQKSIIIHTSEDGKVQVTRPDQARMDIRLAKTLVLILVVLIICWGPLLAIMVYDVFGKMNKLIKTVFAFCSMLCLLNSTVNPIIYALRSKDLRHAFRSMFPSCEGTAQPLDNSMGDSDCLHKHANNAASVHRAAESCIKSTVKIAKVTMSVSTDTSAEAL

Structure (SMILES) | % GABA Example [3] [%] | % GABA Parent [3] [%] | also measured
CC(=O)Nc1c(C(=O)C(C)(C)O)oc2nc(-c3ccc(-c4cn[nH]c4)cc3Cl)c(-c3ccc(Cl)cc3)cc12 [Example 1, N-[5-(4-Chlorophenyl)-6-[2-chloro-4-(1H-pyrazol-4-yl)phenyl]-2-(2-hydroxy-2-methylpropanoyl)furo[2,3-b]pyridin-3-yl]acetamide] | 38 | – | EC50 [1]: < 20 nM; functional mode at CB1 receptor [1]: functional inverse agonists; IC50 [2]: 2 nM
CC(=O)Nc1c(C(=O)C(C)C)oc2nc(-c3ccc(-c4cc[nH]n4)cc3Cl)c(-c3ccc(Cl)cc3)cc12 [Example 2, N-{5-(4-Chlorophenyl)-6-[2-chloro-4-(1H-pyrazol-3-yl)phenyl]-2-isobutyrylfuro[2,3-b]pyridin-3-yl}acetamide] | 17 | – | EC50 [1]: < 20 nM; functional mode at CB1 receptor [1]: functional inverse agonists; IC50 [2]: 6 nM
CC(C)(C)C(=O)c1oc2nc(-c3ccc(-c4cn[nH]c4)cc3Cl)c(-c3ccc(Cl)cc3)cc2c1NC(=O)CO [Example 32, N-[5-(4-Chlorophenyl)-6-[2-chloro-4-(1H-pyrazol-4-yl)phenyl]-2-(2,2-dimethylpropanoyl)furo[2,3-b]pyridin-3-yl]-2-hydroxyacetamide] | 29 | – | –
CC(=O)Nc1c(C(=O)C(C)C)oc2nc(-c3ccc(-c4c[nH]nc4C)cc3Cl)c(-c3ccc(Cl)cc3)cc12 [Example 33, N-[6-[2-Chloro-4-(3-methyl-1H-pyrazol-4-yl)phenyl]-5-(4-chlorophenyl)-2-isobutyrylfuro[2,3-b]pyridin-3-yl]acetamide] | 34 | – | –
Cc1n[nH]cc1-c1ccc(-c2nc3oc(C(=O)C(C)(C)O)c(C)c3cc2-c2ccc(Cl)cc2)c(Cl)c1 [Example 34, 1-[6-[2-Chloro-4-(3-methyl-1H-pyrazol-4-yl)phenyl]-5-(4-chlorophenyl)-3-methylfuro[2,3-b]pyridin-2-yl]-2-hydroxy-2-methylpropan-1-one] | 29 | – | –
CCc1c(C(=O)C(C)(C)O)oc2nc(-c3ccc(-c4c[nH]nc4C)cc3Cl)c(-c3ccc(Cl)cc3)cc12 [Example 35, 1-[6-[2-Chloro-4-(3-methyl-1H-pyrazol-4-yl)phenyl]-5-(4-chlorophenyl)-3-ethylfuro[2,3-b]pyridin-2-yl]-2-hydroxy-2-methylpropan-1-one] | 59 | – | –
Cc1n[nH]cc1-c1ccc(-c2nc3oc(C(=O)C(C)(C)C)c(C)c3cc2-c2ccc(Cl)cc2)c(Cl)c1 [Example 36, 1-[6-[2-Chloro-4-(3-methyl-1H-pyrazol-4-yl)phenyl]-5-(4-chlorophenyl)-3-methylfuro[2,3-b]pyridin-2-yl]-2,2-dimethylpropan-1-one] | 16 | – | –
Cc1n[nH]cc1-c1ccc(-c2nc3oc(C(=O)C(C)C)c(N4CCCC4=O)c3cc2-c2ccc(Cl)cc2)c(Cl)c1 [Example 39, 1-[6-[2-Chloro-4-(3-methyl-1H-pyrazol-4-yl)phenyl]-5-(4-chlorophenyl)-2-isobutyrylfuro[2,3-b]pyridin-3-yl]pyrrolidin-2-one] | 29 | – | –
Cc1c(C(=O)C(C)(C)C)oc2nc(-c3ccc(-c4ncon4)cc3Cl)c(-c3ccc(Cl)cc3)cc12 [Example 42, 1-[6-[2-Chloro-4-(1,2,4-oxadiazol-3-yl)phenyl]-5-(4-chlorophenyl)-3-methylfuro[2,3-b]pyridin-2-yl]-2,2-dimethylpropan-1-one] | 5 | – | –
CC(=O)Nc1c(C(=O)C(C)(C)O)oc2nc(-c3ccccc3Cl)c(-c3ccc(Cl)cc3)cc12 [Example P1, reference compound] | – | 99 | –
CC(=O)Nc1c(C(=O)C(C)C)oc2nc(-c3ccccc3Cl)c(-c3ccc(Cl)cc3)cc12 [Example P2, reference compound] | – | 107 | –
CC(=O)Nc1c(C(=O)C(C)(C)C)oc2nc(-c3ccccc3Cl)c(-c3ccc(Cl)cc3)cc12 [Example P3, reference compound] | – | 67 | –
CCC(=O)c1oc2nc(-c3ccccc3Cl)c(-c3ccc(Cl)cc3)cc2c1NC(C)=O [Example P4, reference compound] | – | 76 | –
CC(C)(C)C(=O)c1oc2nc(-c3ccccc3Cl)c(-c3ccc(Cl)cc3)cc2c1N [Example P5, reference compound] | – | 33 | –
Cc1c(C(=O)C(C)(C)O)oc2nc(-c3ccccc3Cl)c(-c3ccc(Cl)cc3)cc12 [Example P7, reference compound] | – | 75 | –
Cc1c(C(=O)C(C)(C)C)oc2nc(-c3ccccc3Cl)c(-c3ccc(Cl)cc3)cc12 [Example P8, reference compound] | – | 25 | –
Cc1c(C(=O)CC(C)C)oc2nc(-c3ccccc3Cl)c(-c3ccc(Cl)cc3)cc12 [Example P10, reference compound] | – | 59 | –
Cc1c(C(=O)C(C)C)oc2nc(-c3ccccc3Cl)c(-c3ccc(Cl)cc3)cc12 [Example P14, reference compound] | – | 51 | –
CC(C)(O)C(=O)c1oc2nc(-c3ccccc3Cl)c(-c3ccc(Cl)cc3)cc2c1NC(=O)CO [Example P18, reference compound] | – | 100 | –

More lines, main results first:

% GABA Example [3] [%] | % GABA Parent [3] [%] | Structure (SMILES) | also measured
– | 29 | Cc1c(S(=O)(=O)C(C)(C)C)oc2nc(-c3ccccc3Cl)c(-c3ccc(Cl)cc3)cc12 [Example P9, reference compound] | –
– | 94 | C[C@H](O)C(=O)Nc1c(C(=O)C(C)(C)C)oc2nc(-c3ccccc3Cl)c(-c3ccc(Cl)cc3)cc12 [Example P11, reference compound] | –
– | 40 | CC(C)(C)C(=O)c1oc2nc(-c3ccccc3Cl)c(-c3ccc(Cl)cc3)cc2c1C(N)=O [Example P12, reference compound] | –
– | 91 | CC(C)(O)C(=O)c1oc2nc(-c3ccccc3Cl)c(-c3ccc(Cl)cc3)cc2c1N [Example P13, reference compound] | –
– | 50 | CCC(=O)c1oc2nc(-c3ccccc3Cl)c(-c3ccc(Cl)cc3)cc2c1C [Example P15, reference compound] | –
– | 90 | CC(C)(C)C(=O)c1oc2nc(-c3ccccc3Cl)c(-c3ccc(Cl)cc3)cc2c1NC(=O)CO [Example P16, reference compound] | –
– | 100 | CC(C)C(=O)c1oc2nc(-c3ccccc3Cl)c(-c3ccc(Cl)cc3)cc2c1N1CCCC1=O [Example P17, reference compound] | –
– | 96 | CCc1c(C(=O)C(C)(C)O)oc2nc(-c3ccccc3Cl)c(-c3ccc(Cl)cc3)cc12 [Example P19, reference compound] | –
– | 50 | CC(C)(C)C(=O)c1oc2nc(-c3ccccc3Cl)c(-c3ccc(Cl)cc3)cc2c1CO [Example P20, reference compound] | –
– | 62 | CC(=O)c1c(C(=O)C(C)(C)C)oc2nc(-c3ccccc3Cl)c(-c3ccc(Cl)cc3)cc12 [Example P21, reference compound] | –
